A word on the IC50: it is the concentration that inhibits the measured activity by half. The term Papp A→B denotes how fast a substance crosses the layer from the apical side. Low values mean poor permeation, high ones ready permeation. The term efflux ratio denotes the permeability from basolateral to apical divided by that in the opposite direction, in the common usage.

The structures appear in SMILES notation.

The test system of series [1] is SIRPα signalling induced by Raji cells. The series is described as follows: Assay B: SIRPα signalling assay using Raji cells. The series is classed as cell-based. Conditions: Homo sapiens, 48 h compound incubation, Jurkat PathHunter SIRPαV1 reporter cells, read-out: Inhibition of SIRPα signalling induced by Raji cells: IC50. The procedure: (§1) Two cell types are independently used: the Raji cell line (lymphoblast-like human cell line derived from B lymphocytes from a Burkitt's lymphoma patient in 1963) and A549 cells (adenocarcinomic human alveolar basal epithelial cells).
(§2) Test compounds were dissolved in 100% DMSO and serially diluted into a white 384-well microtiter cell culture plate (PerkinElmer #60076780 in case of Raji assay; PDL-coated plates Greiner #781945 in case of A549 assay). 5000 Raji cells (ATCC #CC86) or 5000 A549 cells (ATCC #CCL-185) in Assay Complete Cell Plating reagent 30 (DiscoverX 93-0563R30B) were added per well. The assay plate was incubated for 48 h at 37° C., 95% humidity and 5% CO2. 15000 reporter cells (Jurkat PathHunter SIRPαV1, DiscoverX #93-1135C19) were added to each well, and the plate was incubated for 5 h at 37° C., 95% humidity and 5% CO2. Bioassay reagent 1 of the PathHunter Bioassay detection kit (DiscoverX 93-0001) was added to each well of the plate using a multichannel pipette followed by a 15 min incubation at room temperature. Afterwards bioassay reagent 2 was added followed by 60 min incubation at room temperature (incubation in the dark).
(§3) The analysis of the data was performed using the luminescence signal generated by beta-galactosidase in the PathHunter reporter cell line. The luminescence measurement was done using a Pherastar Multi-Mode Reader. Dose-response curves & IC50 data were calculated with 4-parameter sigmoidal dose response formula.

In series [2] the test system is SIRPα signalling induced by A549 cells. The experiment in a line: Assay B: SIRPα signalling assay using A549 cells. The series is classed as cell-based. The settings on record: Homo sapiens, 48 h compound incubation, Jurkat PathHunter SIRPαV1 reporter cells, read-out: Inhibition of SIRPα signalling induced by A549 cells: IC50. On the procedure: as §1, §2, §3
Series [3] can be described thus: Assay C: permeability in CACO-2 cells. It is filed as in vitro ADME. Conditions: human, pH 7.2; for Papp A→B: Caco-2, apical to basolateral; for efflux ratio: Caco-2, permeability B-A / permeability A-B. Background: Caco-2 monolayers are a common model of the intestinal barrier.
For a further series, the target named is QPCTL (Homo sapiens (Human), UniProt Q9NXS2). The experiment in a line: Assay A: biochemical QPCTL activity assay (MALDI-TOF MS, CD47 peptide substrate). Conditions: 0.5 nM enzyme, 10 μM CD47 peptide substrate; read-out: Inhibition of QPCTL: IC50.
Chain of QPCTL (Q9NXS2 whole entry): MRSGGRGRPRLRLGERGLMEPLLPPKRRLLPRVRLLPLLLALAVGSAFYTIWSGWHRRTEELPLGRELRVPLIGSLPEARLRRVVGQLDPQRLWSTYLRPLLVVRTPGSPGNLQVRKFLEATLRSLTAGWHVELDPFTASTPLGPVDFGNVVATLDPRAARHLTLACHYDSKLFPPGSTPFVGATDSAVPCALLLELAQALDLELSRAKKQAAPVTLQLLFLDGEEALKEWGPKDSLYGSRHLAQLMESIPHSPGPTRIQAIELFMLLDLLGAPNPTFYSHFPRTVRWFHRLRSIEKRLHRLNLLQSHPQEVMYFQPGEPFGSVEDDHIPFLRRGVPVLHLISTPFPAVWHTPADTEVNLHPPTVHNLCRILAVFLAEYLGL
Another series has as its target QPCT (Homo sapiens (Human), UniProt Q16769). The series is described as follows: Assay A: biochemical QPCT activity assay (MALDI-TOF MS, CD47 peptide substrate). Conditions: 0.5 nM enzyme, 20 μM CD47 peptide substrate; read-out: Inhibition of QPCT: IC50.

Chain of QPCT (Q16769 29-361): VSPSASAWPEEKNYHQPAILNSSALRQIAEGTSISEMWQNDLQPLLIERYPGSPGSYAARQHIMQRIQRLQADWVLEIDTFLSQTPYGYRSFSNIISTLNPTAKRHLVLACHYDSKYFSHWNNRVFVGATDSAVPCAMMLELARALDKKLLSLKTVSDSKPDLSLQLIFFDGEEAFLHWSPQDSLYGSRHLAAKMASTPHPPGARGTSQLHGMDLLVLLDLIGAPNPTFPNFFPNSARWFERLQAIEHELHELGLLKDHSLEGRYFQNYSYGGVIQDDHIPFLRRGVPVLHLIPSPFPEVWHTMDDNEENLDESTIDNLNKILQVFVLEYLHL

Turning to `Cn1cnnc1C1(F)CCN(c2c(C#N)ccnc2-c2ccc(F)nc2)CC1` [Example 1], the half-inhibitory concentration (IC50) in series [1] amounted to 168 nM; in series [2], 51 nM. In series [3], this compound came in with a Papp A→B of 28 ×10⁻⁶ cm/s.
`Cn1cnnc1C1CCN(c2c(C#N)ccnc2-c2ccc(F)nc2)CC1` [Example 2]: the half-inhibitory concentration (IC50) on QPCTL was 2 nM; on QPCT, 17 nM; in series [1], 245 nM; in series [2] it was 60 nM. In addition, the efflux ratio in series [3] is 3.5. In series [3], the Papp A→B is 4.8 ×10⁻⁶ cm/s.
As for `Cn1cnnc1C1(C)CCN(c2c(C#N)ccnc2-c2ccc(F)nc2)CC1` [Example 3], the IC50 at QPCTL is 2 nM; on QPCT, 2 nM; in series [1], 467 nM; in series [2] it was 29 nM. Also, the efflux ratio in series [3] worked out at 8.4. Also, the Papp A→B in series [3] was 4.9 ×10⁻⁶ cm/s.
Consider `CC(C)Oc1cc(-c2nccc(C#N)c2N2CCC(c3nncn3C)CC2)cnc1F` [Example 4], for which the 50% inhibitory concentration (IC50) at QPCTL was 1 nM; on QPCT it was 12 nM; in series [1] it was 182 nM; in series [2], 38 nM. In addition, the efflux ratio in series [3] turned out to be 5.9. For the same compound, in series [3], the Papp A→B worked out at 8.5 ×10⁻⁶ cm/s.
On to `COc1cc(-c2nccc(C#N)c2N2CCC(c3nncn3C)CC2)cnc1F` [Example 5], for which the 50% inhibitory concentration (IC50) at QPCTL came to 2 nM; at QPCT, 13 nM; in series [1], 350 nM; in series [2], 44 nM. The efflux ratio in series [3] came out at 14. The compound further returned an apical-to-basolateral permeability (Papp A→B) in series [3] of 2 ×10⁻⁶ cm/s.
For the compound `Cc1cc(-c2nccc(C#N)c2N2CCC(F)(c3nncn3C)CC2)cnc1F` [Example 6], the half-maximal inhibitory concentration (IC50) came to 2 nM at QPCTL, 8 nM at QPCT, 190 nM in series [1] and 34 nM in series [2]. Besides, the efflux ratio in series [3] turned out to be 2.3. Besides, in series [3], the apical-to-basolateral permeability (Papp A→B) worked out at 34 ×10⁻⁶ cm/s.
Turning to `COc1cc(-c2nccc(C#N)c2N2CCC(F)(c3nncn3C)CC2)cnc1F` [Example 7], the half-maximal inhibitory concentration (IC50) on QPCTL came to 2 nM; at QPCT it was 12 nM; in series [1], 214 nM; in series [2] it was 27 nM. Further, in series [3], the efflux ratio worked out at 3.3. The Papp A→B in series [3] was determined as 18 ×10⁻⁶ cm/s.
Consider `Cn1cnnc1C1(F)CCN(c2c(C#N)ccnc2-c2cnc3nn(C(C)(C)C)cc3c2)CC1` [Example 8], for which the IC50 in series [1] was determined as 25 nM; in series [2], 22 nM. In series [3], this compound yielded a Papp A→B of 1.3 ×10⁻⁶ cm/s.
In the case of `Cn1cnnc1C1CCN(c2c(-c3ccc(F)nc3)ccnc2C#N)CC1` [Example 9], the 50% inhibitory concentration (IC50) at QPCTL worked out at 4 nM; at QPCT it was 26 nM; in series [1], 1090 nM. In addition, the efflux ratio in series [3] is 7.8. The compound further gave an apical-to-basolateral permeability (Papp A→B) in series [3] of 1.8 ×10⁻⁶ cm/s.
`Cn1cnnc1C1(F)CCN(c2c(-c3ccc(F)nc3)ccnc2C#N)CC1` [Example 10]: the IC50 on QPCTL was 4 nM; on QPCT, 8 nM; in series [1] it was 352 nM. Moreover, the efflux ratio in series [3] is 5.6. Moreover, the Papp A→B in series [3] amounted to 11 ×10⁻⁶ cm/s.
For the compound `Cn1cnnc1C1(C)CCN(c2c(-c3ccc(F)nc3)ccnc2C#N)CC1` [Example 11], the half-maximal inhibitory concentration (IC50) worked out at 14 nM on QPCTL, 11 nM at QPCT, 1820 nM in series [1] and 237 nM in series [2]. Also, the efflux ratio in series [3] worked out at 11.6. Besides, in series [3], the Papp A→B was determined as 3.1 ×10⁻⁶ cm/s.
Turning to `Cn1cnnc1C1(F)CCN(c2c(C#N)ccnc2-c2cnc3nnc(C(C)(C)C)n3c2)CC1` [Example 12], the 50% inhibitory concentration (IC50) at QPCTL came to 2 nM; at QPCT, 2 nM; in series [1], 53 nM; in series [2], 31 nM. In addition, in series [3], the efflux ratio is 11.2. The Papp A→B in series [3] came out at 2.5 ×10⁻⁶ cm/s.
On to `Cn1cnnc1C1(F)CCN(c2c(C#N)ccnc2-c2cnc3nc(C(C)(C)C)cn3c2)CC1` [Example 13], for which the IC50 on QPCTL was determined as 1 nM; on QPCT, 1 nM; in series [1], 65 nM; in series [2] it was 22 nM. Further, the efflux ratio in series [3] is 35. This compound also returned an apparent permeability from apical to basolateral (Papp A→B) in series [3] of 1 ×10⁻⁶ cm/s.
For `Cn1cnnc1C1(F)CCN(c2c(C#N)ccnc2-c2cnn3ncccc23)CC1` [Example 14], the 50% inhibitory concentration (IC50) is 11 nM at QPCTL, 10 nM at QPCT, 436 nM in series [1] and 116 nM in series [2]. The efflux ratio in series [3] stood at 0.6. For the same compound, the Papp A→B in series [3] stood at 41 ×10⁻⁶ cm/s.
As for `Cn1cnnc1C1(F)CCN(c2c(C#N)ccnc2-c2cnc3nc(C(F)(F)F)cn3c2)CC1` [Example 15], the IC50 at QPCTL was 1 nM; on QPCT, 1 nM; in series [1], 59 nM; in series [2], 33 nM. Moreover, the efflux ratio in series [3] is 14.1. In series [3], this compound yielded a Papp A→B of 0.9 ×10⁻⁶ cm/s.
As to `Cc1cc(C#N)c(N2CCC(F)(c3nncn3C)CC2)c(-c2ccc(F)nc2)n1` [Example 16], the IC50 is 1 nM on QPCTL, 4 nM at QPCT, 86 nM in series [1] and 8 nM in series [2]. In series [3], the efflux ratio was 1.7. In series [3], the apparent permeability from apical to basolateral (Papp A→B) worked out at 40 ×10⁻⁶ cm/s.
Take `Cn1cnnc1C1(F)CCN(c2c(C#N)cc(C(F)(F)F)nc2-c2ccc(F)nc2)CC1` [Example 17]: the IC50 on QPCTL came out at 4 nM; on QPCT, 8 nM; in series [1] it was 92 nM; in series [2], 49 nM. For the same compound, in series [3], the efflux ratio came out at 1.3. In addition, the Papp A→B in series [3] was 38 ×10⁻⁶ cm/s.
`Cn1cnnc1C1(F)CCN(c2c(C#N)ccnc2-c2cnc(F)c(Cl)c2)CC1` [Example 18]: the IC50 stood at 8 nM on QPCTL, 23 nM at QPCT, 482 nM in series [1] and 112 nM in series [2]. In addition, the efflux ratio in series [3] was determined as 1.4. In series [3], this compound gave an apical-to-basolateral permeability (Papp A→B) of 41 ×10⁻⁶ cm/s.
Regarding `Cn1cnnc1C1(F)CCN(c2c(C#N)ccnc2-c2cncc(-n3cccn3)c2)CC1` [Example 19], the IC50 at QPCTL came to 2 nM; at QPCT, 10 nM; in series [1], 509 nM; in series [2], 18 nM. Moreover, in series [3], the efflux ratio stood at 6.5. The compound further registered an apical-to-basolateral permeability (Papp A→B) in series [3] of 4.9 ×10⁻⁶ cm/s.
In the case of `Cn1cnnc1C1(F)CCN(c2c(C#N)ccnc2-c2cncc(C3CC3)c2)CC1` [Example 20], the 50% inhibitory concentration (IC50) was 21 nM at QPCTL, 29 nM on QPCT, 1950 nM in series [1] and 342 nM in series [2].
Take `Cn1cc2cc(-c3nccc(C#N)c3N3CCC(F)(c4nncn4C)CC3)cnc2n1` [Example 21]: the half-maximal inhibitory concentration (IC50) on QPCTL is 1 nM; on QPCT it was 3 nM; in series [1], 322 nM; in series [2], 22 nM.
On to `Cn1cnnc1C1(F)CCN(c2c(C#N)ccnc2-c2cnc(F)c(F)c2)CC1` [Example 23], for which the IC50 is 6 nM at QPCTL, 32 nM on QPCT, 1660 nM in series [1] and 114 nM in series [2].
In the case of `Cn1cnnc1C1(F)CCN(c2c(C#N)ccnc2-c2cn[nH]c2)CC1` [Example 24], the concentration for half-maximal inhibition (IC50) was 18 nM at QPCTL, 31 nM at QPCT, 1770 nM in series [1] and 693 nM in series [2].
The like results for `Cn1cnnc1C1(F)CCN(c2c(C#N)ccnc2-c2cnsc2)CC1` [Example 25] were, in that order, 10 nM, 30 nM, 1610 nM and 44 nM.
As to `Cn1cnnc1C1(F)CCN(c2c(C#N)ccnc2-c2cnc(F)c(OCC3CC3)c2)CC1` [Example 26], in series [1], the half-inhibitory concentration (IC50) was determined as 103 nM. Also, the IC50 in series [2] was determined as 7 nM. Moreover, in series [3], the efflux ratio is 1.7 and the apical-to-basolateral permeability (Papp A→B) is 45 ×10⁻⁶ cm/s.
As for `C=CCOc1cc(-c2nccc(C#N)c2N2CCC(F)(c3nncn3C)CC2)cnc1F` [Example 28], the IC50 on QPCTL came to 2 nM; at QPCT it was 3 nM; in series [1], 180 nM; in series [2] it was 33 nM.
`Cn1cnnc1C1(F)CCN(c2c(C#N)ccnc2-c2cnc3nn(C(C)(C)C(F)(F)F)cc3c2)CC1` [Example 29]: the IC50 in series [1] amounted to 81 nM. The IC50 in series [2] is 13 nM. Further, in series [3], the efflux ratio amounted to 15.2 and the apparent permeability from apical to basolateral (Papp A→B) is 2.5 ×10⁻⁶ cm/s.
For the compound `Nc1ncc(C2CCN(c3ncccc3-c3ccc(F)nc3)CC2)s1` [Example 1094, reference compound], the IC50 in series [1] stood at 3240 nM.
`Nc1nnc(C2CCN(c3ncccc3-c3ccc(F)nc3)CC2)s1` [Example 1095, reference compound]: the IC50 in series [1] stood at 2200 nM; in series [2], 161 nM.
The corresponding values for `Cn1cnnc1C1CCN(c2ncccc2-c2ccc(F)nc2)CC1` [SEN177, reference compound] are 1360 nM and 214 nM.
The like results for `Cn1cnnc1C1CCN(c2ncccc2-c2cccnc2)CC1` [SEN180, reference compound] were, in that order, 2970 nM and 868 nM.
